Laboratory results published in the supplement of paper PMC10307832.

What was measured:
Experiment in all cases: relative viability (nuclei count vs DMSO), 5 days (fraction); higher = more cells survive
Carfilzomib + OSI-027 = compound: CC(C)C[C@H](NC(=O)[C@H](CCc1ccccc1)NC(=O)CN1CCOCC1)C(=O)N[C@@H](Cc1ccccc1)C(=O)N[C@@H](CC(C)C)C(=O)[C@@]1(C)CO1 [Carfilzomib] + COc1cccc2cc(-c3nc([C@H]4CC[C@H](C(=O)O)CC4)n4ncnc(N)c34)[nH]c12 [OSI-027] (partner 0.5 µM)
Outline: (§1)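 Each reported value is a median over duplicate plates. It expresses relative viability: treated-well nuclei count divided by vehicle-well nuclei count. Lung cancer cell lines in 1536-well plates were dosed by pin tool a day after seeding, alone with one drug or with a fixed anchor-drug dose plus five library-drug doses (not always all listed) in √10 steps, and nuclei were counted after 5 days.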

Carfilzomib + Linsitinib = compound: CC(C)C[C@H](NC(=O)[C@H](CCc1ccccc1)NC(=O)CN1CCOCC1)C(=O)N[C@@H](Cc1ccccc1)C(=O)N[C@@H](CC(C)C)C(=O)[C@@]1(C)CO1 [Carfilzomib] + C[C@]1(O)C[C@@H](c2nc(-c3ccc4ccc(-c5ccccc5)nc4c3)c3c(N)nccn32)C1 [Linsitinib] (partner 1 µM)
Outline: as §1

Carfilzomib + Olaparib = compound: CC(C)C[C@H](NC(=O)[C@H](CCc1ccccc1)NC(=O)CN1CCOCC1)C(=O)N[C@@H](Cc1ccccc1)C(=O)N[C@@H](CC(C)C)C(=O)[C@@]1(C)CO1 [Carfilzomib] + O=C(c1cc(Cc2n[nH]c(=O)c3ccccc23)ccc1F)N1CCN(C(=O)C2CC2)CC1 [Olaparib] (partner 8 µM)
Outline: as §1

Olaparib + Tozasertib = compound: O=C(c1cc(Cc2n[nH]c(=O)c3ccccc23)ccc1F)N1CCN(C(=O)C2CC2)CC1 [Olaparib] + Cc1cc(Nc2cc(N3CCN(C)CC3)nc(Sc3ccc(NC(=O)C4CC4)cc3)n2)n[nH]1 [Tozasertib] (partner 0.1 µM)
Outline: as §1

Cell Line | relative viability (Carfilzomib + OSI-027; first compound 0.001 µM) | relative viability (Carfilzomib + OSI-027; first compound 0.003162 µM) | relative viability (Carfilzomib + OSI-027; first compound 0.01 µM) | relative viability (Carfilzomib + OSI-027; first compound 0.03162 µM) | relative viability (Carfilzomib + OSI-027; first compound 0.1 µM) | relative viability (Carfilzomib + Linsitinib; first compound 0.001 µM) | relative viability (Carfilzomib + Linsitinib; first compound 0.003162 µM) | relative viability (Carfilzomib + Linsitinib; first compound 0.01 µM) | relative viability (Carfilzomib + Linsitinib; first compound 0.03162 µM) | relative viability (Carfilzomib + Linsitinib; first compound 0.1 µM) | relative viability (Carfilzomib + Olaparib; first compound 0.001 µM) | relative viability (Carfilzomib + Olaparib; first compound 0.003162 µM) | relative viability (Carfilzomib + Olaparib; first compound 0.01 µM) | relative viability (Carfilzomib + Olaparib; first compound 0.03162 µM) | relative viability (Carfilzomib + Olaparib; first compound 0.1 µM) | relative viability (Olaparib + Tozasertib; first compound 0.08 µM) | relative viability (Olaparib + Tozasertib; first compound 0.253 µM) | relative viability (Olaparib + Tozasertib; first compound 2.53 µM) | relative viability (Olaparib + Tozasertib; first compound 8 µM)
201T | 0.749 | 0.795 | 0.884 | 0.437 | 0.31 | 0.992 | 1.07 | 1.1 | 1.09 | 1.02 | 0.83 | 0.838 | 0.856 | 0.907 | 0.546 | 1.05 | 0.91 | 0.919 | 0.879
A549 |  |  |  |  |  | 0.478 | 0.756 | 0.546 | 0.231 | 0.0396 | 0.344 | 0.301 | 0.405 | 0.0248 | 0.0273 |  |  |  | 
A-427 | 0.47 | 0.542 | 0.395 | 0.145 | 0.132 | 1.12 | 1.11 | 1.11 | 1.01 | 0.119 | 0.782 | 0.827 | 0.749 | 0.271 | 0.147 | 0.196 | 0.209 | 0.188 | 0.163
ABC-1 | 0.431 | 0.289 | 0.276 | 0.158 | 0.171 | 0.837 | 0.665 | 0.527 | 0.235 | 0.242 | 0.768 | 0.846 | 0.348 | 0.324 | 0.26 | 0.22 | 0.149 | 0.198 | 0.182
BEN | 0.312 | 0.313 | 0.3 | 0.294 | 0.263 | 0.968 | 1.21 | 0.965 | 0.865 | 0.392 | 1.02 | 1.29 | 1.18 | 1.03 | 0.376 | 0.53 | 0.48 | 0.529 | 0.48
CAL-12T | 0.667 | 0.708 | 0.85 | 0.131 | 0.131 | 0.836 | 0.923 | 0.876 | 0.57 | 0.112 | 0.765 | 0.744 | 0.702 | 0.265 | 0.145 | 0.345 | 0.259 | 0.281 | 0.235
COR-L23 | 0.455 | 0.908 | 0.762 | 0.144 | 0.0646 | 0.939 | 1.05 | 0.867 | 0.0469 | 0.0604 | 0.392 | 0.435 | 0.36 | 0.0646 | 0.0712 | 0.22 | 0.192 | 0.176 | 0.12
COR-L 105 | 0.805 | 0.82 | 0.699 | 0.271 | 0.191 | 0.937 | 1.05 | 0.879 | 0.297 | 0.249 | 0.704 | 0.735 | 0.716 | 0.465 | 0.301 | 0.368 | 0.351 | 0.319 | 0.275
Calu-6 |  |  |  |  |  | 0.941 | 1.15 | 0.934 | 0.202 | 0.08 | 0.52 | 0.628 | 0.504 | 0.0906 | 0.0789 |  |  |  | 
